We go through 15 compounds from paper PMC3960075 (ACS chemical biology, 2012).

Entries after “also recorded” stand apart in the source; their conditions may differ.

In data set [1] the target is T1, PAN endonuclease (influenza virus PA N-terminal domain) (Influenza A virus, UniProt Q5EP34). The class given is binding.
The subject of a further data set is influenza A/PR/8/34. Put plainly: microbe, parasite or virus in culture. The data set is classed as cell-based, avian H1N1 influenza A virus (A/PuertoRico/8/34). The settings on record: for IC50: Influenza A virus, PR/8, MDCK, read-out: IC50, viral plaque inhibition.
A further data set relates to immunoglobulin G (IgG). Put plainly: Direct binding FP specificity control with IgG. Conditions: IgG 2-fold serial dilutions from 100 μM, 4 at 60 nM.
In data set [2] the target is T1, PAN endonuclease (influenza virus PA N-terminal domain). The class given is binding. The source holds these as a separate data set.
The next data set in a line: in vitro. Conditions: dog.

On to `O=C(O)/C(O)=C/C(=O)C1(Cc2ccc(Cl)cc2)CCN(Cc2ccccc2)CC1` [Compound 2, reference compound], for which the “inhibition (displacement of 4 from PAN)” value in data set [1] (250 µM) amounted to 100%. The IC50 (usually the concentration that gives 50% inhibition) in the data set on influenza A/PR/8/34 was 3.13 ± 0.08 µM.

Regarding `O=C(O)/C(O)=C/C(=O)C1(Cc2ccc(Cl)cc2)CCN(C(=O)c2ccc(-c3c4ccc(=O)cc-4oc4cc(O)ccc34)c(C(=O)O)c2)CC1` [Compound 4], the “Non-specific binding to IgG” value in the data set on immunoglobulin G (IgG) is recorded as “not observed”. In data set [2], this compound showed a dynamic range of 124.3 ± 0.9 mP.

For `O=C(O)/C(O)=C/C(=O)c1cccnc1` [Compound 13], in data set [1], the “FP competitive binding, result in words” value is “inactive”.

Consider `O=C(O)C(=O)C1=C(O)c2ccccc2OC1` [Compound 14], for which the “FP competitive binding, result in words” value in data set [1] was “inactive”.

Consider `COc1ccc2c(c1)CC(C(=O)C(=O)O)=C2O` [Compound 15], for which the “FP competitive binding, result in words” value in data set [1] was “inactive”.

Take `COC(=O)/C(O)=C/C(=O)c1ccccc1` [Compound 16, reference compound]: the “FP competitive binding, result in words” value in data set [1] was “inactivity”. In the data set on influenza A/PR/8/34, the “Inhibition of viral plaque formation, result in words” value was “inactive” and the IC50 is more than 100 µM.

Consider `CC(C)(C)OC(=O)/C(O)=C/C(=O)c1ccccc1` [Compound 17], for which, in data set [1], the “FP competitive binding, result in words” value was “inactivity”.

Regarding `O=C(O)/C=C/C(=O)c1ccccc1` [Compound 18], in data set [1], the “FP competitive binding, result in words” value was “inactive”.

As for `O=C(O)CCC(=O)c1ccccc1` [Compound 19], the “FP competitive binding, result in words” value in data set [1] is “no inhibition; also recorded: inactive”.

For `O=C(O)c1nc(-c2cnccn2)nc(O)c1O` [Compound 31], in the data set with influenza A/PR/8/34, the IC50 is more than 50 µM.

`CC(NC(=O)c1nc(-c2cnccn2)[nH]c(=O)c1O)c1ccccc1` (centres unmarked) [Compound 42] had a CC50 in “in vitro” of more than 60 µM. Further, in the data set on influenza A/PR/8/34, the IC50 was found to be 14.28 ± 0.07 µM.

`O=C(NCCc1ccccc1)c1nc(-c2cnccn2)[nH]c(=O)c1O` [Compound 43]: in the data set with influenza A/PR/8/34, the “Inhibition of viral plaque formation, result in words” value was “inactive” and the half-maximal inhibitory concentration (IC50) is more than 100 µM.

Regarding `C[C@H](NC(=O)c1nc(-c2cnccn2)[nH]c(=O)c1O)c1ccccc1` [Compound 44], the CC50 in “in vitro” was more than 60 µM. In the data set with influenza A/PR/8/34, the IC50 worked out at 18.61 ± 0.09 µM.

The compound `C[C@@H](NC(=O)c1nc(-c2cnccn2)[nH]c(=O)c1O)c1ccccc1` [Compound 45] had a CC50 in “in vitro” of more than 60 µM. For the same compound, in the data set with influenza A/PR/8/34, the half-maximal inhibitory concentration (IC50) turned out to be 12.68 ± 0.08 µM.

Consider `CCC(CC)O[C@@H]1C=C(C(=O)O)C[C@H](N)[C@H]1NC(C)=O` [oseltamivir carboxylate, reference compound], for which the “inhibition of viral plaque formation” value with influenza A/PR/8/34 was determined as 100%.
